According to patent US7879795B2, “Enhancement of tigecycline potency using efflux pump inhibitors” (Mpex Pharmaceuticals, Inc., priority 2004, dated 2011):

Assays:
[1] = Tissue levels after 2-hour IV infusion in rats; type: in vivo, rat; settings: for concentration at 4 h: 2 h after end of 2-hour IV infusion; for concentration at 4 h / concentration at 2 h / concentration at 6 h: 10 mg/kg; for concentration at 2 h: end of 2-hour IV infusion; for tissue levels and clearance from tissues after 2-hour IV infusion: rat, in words; for concentration at 6 h: 4 h after end of 2-hour IV infusion
Protocol: Levels of EPIs in various tissues were evaluated after 2-hour IV infusion in rats. The rats received 10 mg/kg IV infusion through FVC. Animals were divided into 2 groups: group 1 was sacrificed immediately after the end of infusion and group 2, 2 h or 4 h after the end of infusion. Tissues from each animal were collected, homogenized and compounds were extracted. Tissues were mixed with saline at 1:1 ratio (v/w) in 12×75 mm polypropylene round bottom tubes. The mixtures were homogenized with a Polytron homogenizer (on ice, 3×10-15 seconds with 30 seconds intervals at the setting of 7). 50 μl of homogenized tissue were immediately transferred to an Eppendorf tube and 2-volumes of 4% TCA were added. After vortexing for 30 seconds, the tubes were centrifuged in a microfuge at top speed (13.2 k rpm) for 5 minutes. The supernatant was collected, and 45 μl of the supernatant was transferred to a glass LC/MS/MS vial (Kimble, 11 mm, 1.5 ml) for analysis, which allowed determination of tissue levels of EPIs at the end of the infusion and 2 h or 4 h later.

[2] = Rat serum pharmacokinetics after 2-hour IV infusion; type: in vivo; settings: serum, 2-hour IV infusion, total dose 10 mg/kg, two-compartment model
Protocol: Rat serum pharmacokinetics of compounds 1, 3, 7, and 21 was evaluated after 2-hour IV infusion of 1 mg/ml EPI solution in 0.9% saline. Total infused dose was 10 mg/kg. FIG. 12 depicts the serum concentrations as a function of time. A two-compartment model was used to fit the data and calculate PK parameters.

[3] = test system: strain 29A2 of P. aeruginosa overexpressing MexAB-OprM efflux pump; assay: Neutropenic mice lung model of PA infection; type: in vivo; settings: for bacterial load in infected lungs, EPI with levofloxacin: levofloxacin 30 mg/kg SQ plus EPI IP
Protocol: Neutropenia was induced by cyclophosphamide 100 mg/kg IP on days 3 and 1 prior to infection. The strain 29A2 of P. aeruginosa overexpressing MexAB-OprM efflux pump was grown overnight in Mueller-Hinton Broth (MHB). The next day overnight culture was diluted in fresh MHB and was allowed to re-grow to ˜10^8 CFU/mL (OD600˜0.3). The culture was spun down, washed twice with phosphate buffered saline (PBS) and re-suspended in PBS to ˜4×10^7 CFU/mL. 50 μl of inoculum was used for intratracheal instillation of mice, which were anesthetized with sevoflourane/oxygen. […] Four mice from each treatment group were euthanized at various times after the start of treatment. The lungs were removed aseptically, homogenized in saline, and immediately plated to determine bacterial load (CFU/ml) in infected lungs. P. aeruginosa is plotted as a function of time in FIG. 20.

[4] = test system: P. aeruginosa strain PAM1723 overexpressing MexAB-OprM efflux pump; assay: Neutropenic mice thigh model of PA infection; type: in vivo; settings: levofloxacin 30 mg/kg SQ, EPI 60 mg/kg IP, 2 hours post-infection
Protocol: Efficacy of the EPIs was evaluated in a Neutropenic Mice Thigh Model of P. aeruginosa Infection. Neutropenia was induced by cyclophosphamide 100 mg/kg IP on days 3 and 1 prior to infection. P. aeruginosa strain PAM1723 overexpressing MexAB-OprM efflux pump was grown overnight in Mueller-Hinton Broth (MHB). The next day, the overnight culture was diluted in fresh MHB and was allowed to re-grow to ˜10^8 CFU/mL (OD600˜0.3). The culture was spun down, washed twice with phosphate buffered saline (PBS) and re-suspend in PBS to ˜4×10^6 CFU/mL. Next, this culture was mixed 1:1 with 14% hog-gastric mucin in PBS to give a final inoculum of 2×10^6 CFU/mL. Infection was initiated with injection of 0.1 mL of inoculum (˜2×10^5 CFU/thigh) directly into both thighs of each mouse. Two mice from each treatment group were euthanized at various times after the start of treatment. The thighs were removed aseptically, homogenized in saline, and immediately plated to determine bacterial load (CFU/ml). Treatment was initiated 2 hours post infection.

For NCCC[C@@H](N)C(=O)N[C@H](CCc1ccccc1)C(=O)Nc1cnc2ccccc2c1 [Compound 1, 2-(R),5-Diamino-pentanoic acid [3-phenyl-1-(R)-(quinolin-3-ylcarbamoyl)-propyl]-amide], the “2 h/4 h Ratio” value ([1]; rat brain concentration) was 1.34, the concentration at 4 h ([1]; rat brain) was 130 ng/mL and the concentration at 2 h ([1]; rat brain) was 180 ng/mL. The “2 h/4 h Ratio” value ([1]; rat heart concentration) was 0.93, the concentration at 4 h ([1]; rat heart) was 2340 ng/mL and the concentration at 2 h ([1]; rat heart) was 2180 ng/mL. For the same molecule, the “2 h/4 h Ratio” value ([1]; rat kidney concentration) was 1.66, the concentration at 4 h ([1]; rat kidney) was 29600 ng/mL and the concentration at 2 h ([1]; rat kidney) was 49300 ng/mL. For the same molecule, the “2 h/4 h Ratio” value ([1]; rat liver concentration) was 0.99, the concentration at 4 h ([1]; rat liver) was 10600 ng/mL and the concentration at 2 h ([1]; rat liver) was 10600 ng/mL. The “2 h/4 h Ratio” value ([1]; rat lung concentration) was 1.55, the concentration at 4 h ([1]; rat lung) was 4180 ng/mL and the concentration at 2 h ([1]; rat lung) was 6500 ng/mL. For the same molecule, the “2 h/4 h Ratio” value ([1]; rat muscle concentration) was 1.59, the concentration at 4 h ([1]; rat muscle) was 2860 ng/mL and the concentration at 2 h ([1]; rat muscle) was 4540 ng/mL. For the same molecule, the “2 h/4 h Ratio” value ([1]; rat pancreas concentration) was 1.34, the concentration at 4 h ([1]; rat pancreas) was 4050 ng/mL and the concentration at 2 h ([1]; rat pancreas) was 5400 ng/mL. For the same molecule, the “2 h/4 h Ratio” value ([1]; rat spleen concentration) was 1.35, the concentration at 4 h ([1]; rat spleen) was 3710 ng/mL and the concentration at 2 h ([1]; rat spleen) was 5010 ng/mL. The “2 h/4 h Ratio” value ([1]; rat testicles concentration) was 2.04, the concentration at 4 h ([1]; rat testicles) was 280 ng/mL and the concentration at 2 h ([1]; rat testicles) was 580 ng/mL. The “2 h/4 h Ratio” value ([1]; rat thymus concentration) was 1.23, the concentration at 4 h ([1]; rat thymus) was 2760 ng/mL and the concentration at 2 h ([1]; rat thymus) was 3410 ng/mL. The “tissue levels and clearance from tissues after 2-hour IV infusion” value (“tissue levels and clearance from tissues” below) [1] was “High levels”, the clearance [2] was 24 mL/min/kg and the “growth of P. aeruginosa in infected lungs, EPI alone” value ([3]; EPI 100 mg/kg IP alone (0/100) versus no addition) was “No difference in growth”. For the same molecule, the “bacterial load in infected lungs, EPI with levofloxacin” value [3] was “significantly decreased bacterial load” and the “bacterial load in thighs, EPI with levofloxacin versus levofloxacin alone” value [4] was “significantly enhanced activity of levofloxacin”.

With NCCC[C@H](N)C(=O)N[C@H](CCc1ccccc1)C(=O)Nc1cnc2ccccc2c1 [Compound 3, 2-(S),5-Diamino-pentanoic acid [3-phenyl-1-(R)-(quinolin-3-ylcarbamoyl)-propyl]-amide] the “2 h/4 h Ratio” value ([1]; rat brain concentration) was 0.35, the concentration at 4 h ([1]; rat brain) was 210 ng/mL and the concentration at 2 h ([1]; rat brain) was 70 ng/mL. For the same molecule, the “2 h/4 h Ratio” value ([1]; rat heart concentration) was 4.82, the concentration at 4 h ([1]; rat heart) was 470 ng/mL and the concentration at 2 h ([1]; rat heart) was 2260 ng/mL. The “2 h/4 h Ratio” value ([1]; rat kidney concentration) was 7.28, the concentration at 4 h ([1]; rat kidney) was 1680 ng/mL and the concentration at 2 h ([1]; rat kidney) was 12200 ng/mL. For the same molecule, the “2 h/4 h Ratio” value ([1]; rat liver concentration) was 1.60, the concentration at 4 h ([1]; rat liver) was 830 ng/mL and the concentration at 2 h ([1]; rat liver) was 1330 ng/mL. The “2 h/4 h Ratio” value ([1]; rat lung concentration) was 2.23, the concentration at 4 h ([1]; rat lung) was 1910 ng/mL and the concentration at 2 h ([1]; rat lung) was 4270 ng/mL. For the same molecule, the “2 h/4 h Ratio” value ([1]; rat muscle concentration) was 1.91, the concentration at 4 h ([1]; rat muscle) was 1140 ng/mL and the concentration at 2 h ([1]; rat muscle) was 2180 ng/mL. The “2 h/4 h Ratio” value ([1]; rat pancreas concentration) was 2.91, the concentration at 4 h ([1]; rat pancreas) was 380 ng/mL and the concentration at 2 h ([1]; rat pancreas) was 1110 ng/mL. The “2 h/4 h Ratio” value ([1]; rat spleen concentration) was 6.16, the concentration at 4 h ([1]; rat spleen) was 720 ng/mL and the concentration at 2 h ([1]; rat spleen) was 4410 ng/mL. For the same molecule, the “2 h/4 h Ratio” value ([1]; rat testicles concentration) was 5.14, the concentration at 4 h ([1]; rat testicles) was 60 ng/mL and the concentration at 2 h ([1]; rat testicles) was 320 ng/mL. For the same molecule, the “2 h/4 h Ratio” value ([1]; rat thymus concentration) was 1.69, the concentration at 4 h ([1]; rat thymus) was 1460 ng/mL and the concentration at 2 h ([1]; rat thymus) was 2460 ng/mL. For the same molecule, the “tissue levels and clearance from tissues” value [1] was “Lower levels”, the clearance [2] was 23.3 mL/min/kg and the “bacterial load in infected lungs, EPI with levofloxacin” value [3] was “dose-dependent efficacy in levofloxacin potentiation”. For the same molecule, the “bacterial load in thighs, EPI with levofloxacin versus levofloxacin alone” value [4] was “potentiated levofloxacin in vivo”.

For NCCC[C@H](N)C(=O)N[C@H](Cc1ccc(C(F)(F)F)cc1)C(=O)Nc1cnc2ccccc2c1 [Compound 21, 2-(S),5-Diamino-pentanoic acid [1-(R)-(quinolin-3-ylcarbamoyl)-2-(4-trifluoromethyl-phenyl)-ethyl]amide], the “2 h/6 h Ratio” value ([1]; rat brain concentration) was 16.37, the concentration at 4 h ([1]; rat brain) was 470 ng/mL and the concentration at 6 h ([1]; rat brain) was 30 ng/mL. The concentration at 2 h ([1]; rat brain) was 490 ng/mL, the “2 h/6 h Ratio” value ([1]; rat heart concentration) was 7.33 and the concentration at 4 h ([1]; rat heart) was 1760 ng/mL. For the same molecule, the concentration at 6 h ([1]; rat heart) was 720 ng/mL, the concentration at 2 h ([1]; rat heart) was 5250 ng/mL and the “2 h/6 h Ratio” value ([1]; rat kidney concentration) was 20.10. It also gave a concentration at 4 h ([1]; rat kidney) of 20800 ng/mL, a concentration at 6 h ([1]; rat kidney) of 2920 ng/mL and a concentration at 2 h ([1]; rat kidney) of 58700 ng/mL. The “2 h/6 h Ratio” value ([1]; rat liver concentration) was 30.21, the concentration at 4 h ([1]; rat liver) was 2320 ng/mL and the concentration at 6 h ([1]; rat liver) was 200 ng/mL. For the same molecule, the concentration at 2 h ([1]; rat liver) was 5950 ng/mL, the “2 h/6 h Ratio” value ([1]; rat lung concentration) was 3.43 and the concentration at 6 h ([1]; rat lung) was 3900 ng/mL. The concentration at 2 h ([1]; rat lung) was 13400 ng/mL, the “2 h/6 h Ratio” value ([1]; rat muscle concentration) was 3.94 and the concentration at 4 h ([1]; rat muscle) was 1360 ng/mL. The concentration at 6 h ([1]; rat muscle) was 1210 ng/mL, the concentration at 2 h ([1]; rat muscle) was 4750 ng/mL and the “2 h/6 h Ratio” value ([1]; rat pancreas concentration) was 20.73. For the same molecule, the concentration at 4 h ([1]; rat pancreas) was 1580 ng/mL, the concentration at 6 h ([1]; rat pancreas) was 470 ng/mL and the concentration at 2 h ([1]; rat pancreas) was 9710 ng/mL. The “2 h/6 h Ratio” value ([1]; rat spleen concentration) was 3.46, the concentration at 4 h ([1]; rat spleen) was 4440 ng/mL and the concentration at 6 h ([1]; rat spleen) was 2210 ng/mL. For the same molecule, the concentration at 2 h ([1]; rat spleen) was 7660 ng/mL, the “2 h/6 h Ratio” value ([1]; rat testicles concentration) was 8.32 and the concentration at 4 h ([1]; rat testicles) was 330 ng/mL. The concentration at 6 h ([1]; rat testicles) was 80 ng/mL, the concentration at 2 h ([1]; rat testicles) was 700 ng/mL and the “2 h/6 h Ratio” value ([1]; rat thymus concentration) was 2.02. The concentration at 4 h ([1]; rat thymus) was 6000 ng/mL, the concentration at 6 h ([1]; rat thymus) was 3590 ng/mL and the concentration at 2 h ([1]; rat thymus) was 7250 ng/mL. The “tissue levels and clearance from tissues” value [1] was “Slower clearance”, the clearance [2] was 16.2 mL/min/kg and the “bacterial load in thighs, EPI with levofloxacin versus levofloxacin alone” value [4] was “significantly enhanced activity of levofloxacin”.
